Source: patent US20230152316A1, “SARS-COV2 SPIKE PROTEIN BINDING PEPTIDES” (priority 2020, published 2023)

Biological target: SARS-CoV-2-RBD (insect-derived) (Severe acute respiratory syndrome coronavirus 2, UniProt P0DTC2, F486P)

For TFLDKFNHEAED [SEQ ID NO: 15], which “binding to SARS-CoV-2-RBD” value is on record?
Its value is “did not bind”.
